The values that follow are results of earlier work, collected in US10561602B2 (priority 2015, dated 2020).

The conditions of series [1]: n-octanol/0.05 M phosphate buffer at pH 7.4.
For series [2] the following is noted: water and both basic and acidic aqueous solutions.

On to `CC(C)C[C@H](CN)CC(=O)O` [Pregabalin, (S)-3-(aminomethyl)-5-methylhexanoic acid], for which the “log of the partition coefficient” value in series [1] is recorded as “about −1.35”. Moreover, the solubility entry in series [2] was “freely soluble”.
